Structures can show the parent of a compound that is named as a salt.

In general, melting point refers to the temperature, or range, at which the solid turns liquid. `CCOCc1nc2c(N)nc3cc(-c4cccnc4)ccc3c2n1Cc1ccc(CNS(C)(=O)=O)cc1` [Example 493, N-{4-[4-Amino-2-ethoxymethyl-7-(pyridin-3-yl)-1H-imidazo[4,5-c]quinolin-1-ylmethyl]benzyl}methanesulfonamide] returned a melting point of 228 to 229 °C.

On to `CCCCc1nc2c(N)nc3cc(-c4cccnc4)ccc3c2n1CCN1CCCS1(=O)=O` [Example 393, 1-[2-(1,1-Dioxo-1-isothiazolidin-2-yl)ethyl]-2-butyl-7-(pyridin-3-yl)-1H-imidazo[4,5-c]quinolin-4-amine], for which the melting point was in the range of 290 to 292 °C.

For `CCCc1nc2c(N)nc3cc(CCc4cccc(OC)c4)ccc3c2n1CC(C)C` [Example 458, 7-[2-(3-Methoxyphenyl)ethyl]-1-(2-methylpropyl)-2-propyl-1H-imidazo[4,5-c]quinolin-4-amine], the melting point lay within 155 to 157 °C.

Molecule `CCOCc1nc2c(N)nc3cc(-c4cccnc4)ccc3c2n1CC1CCN(C(=O)C2CCCO2)CC1` (stereo not shown) [Example 182, 2-Ethoxymethyl-7-(pyridin-3-yl)-1-{[1-(tetrahydrofuran-2-ylcarbonyl)piperidin-4-yl]methyl}-1H-imidazo[4,5-c]quinolin-4-amine] registered a melting point of 191 to 192 °C.

In the case of `CCCCn1c(COCC)nc2c(N)nc3ccc(-c4cccnc4)cc3c21` [Example 19, 1-Butyl-2-ethoxymethyl-8-(pyridin-3-yl)-1H-imidazo[4,5-c]quinolin-4-amine], the melting point fell in the range of 220 to 222 °C.

`CCOCc1nc2c(N)nc3c(-c4cccc(C(=O)N5CCOCC5)c4)cccc3c2n1CC(C)(C)O` [Example 486, {3-[4-Amino-2-ethoxymethyl-1-(2-hydroxy-2-methylpropyl)-1H-imidazo[4,5-c]quinolin-6-yl]phenyl}morpholin-4-ylmethanone] yielded a melting point of 164 to 166 °C.

Consider `CC(C)Cn1cnc2c(N)nc3ccc(-c4ccsc4)cc3c21` [Example 12, 1-Isobutyl-8-(thiophen-3-yl)-1H-imidazo[4,5-c]quinolin-4-amine], for which the melting point lay in the range of 235 to 236 °C.

In turn, `CCOCc1nc2c(N)nc3cc(-c4cccnc4)ccc3c2n1CCCCNC(=O)c1ccc(C(OCCN(C)C)c2ccccc2)cc1` (stereo not shown) [Example 494, N-[4-(4-Amino-2-ethoxymethyl-7-(pyridin-3-yl)imidazo[4,5-c]quinolin-1-yl)butyl]-4-[(2-dimethylaminoethoxy)phenylmethyl]benzamide] displayed a melting point of 157 to 161 °C.

Regarding `CCOCc1nc2c(N)nc3cc(-c4cncc(CO)c4)ccc3c2n1CC(C)(C)O` [Example 133, 1-[4-Amino-2-ethoxymethyl-7-(5-hydroxymethylpyridin-3-yl)-1H-imidazo[4,5-c]quinolin-1-yl]-2-methylpropan-2-ol], the melting point is 188 to 190 °C.

With `CCCc1nc2c(N)nc3cc(CCc4ccccc4OC)ccc3c2n1CC(C)C` (as salt: HCl) [Example 460, 7-[2-(2-Methoxyphenyl)ethyl]-1-(2-methylpropyl)-2-propyl-1H-imidazo[4,5-c]quinolin-4-amine], the melting point was more than 250 °C.

For `CCCCc1nc2c(N)nc3cc(-c4ccc(OC)cc4OC)ccc3c2n1CC(C)C` [Example 3, 2-Butyl-7-(2,4-dimethoxyphenyl)-1-isobutyl-1H-imidazo[4,5-c]quinolin-4-amine], the melting point fell in the range of 187 to 189 °C.

Turning to `CCOCc1nc2c(N)nc3cc(-c4cccnc4)ccc3c2n1CCCCNC(=O)NC1CCCC1` [Example 377, N-{4-[4-Amino-2-ethoxymethyl-7-(pyridin-3-yl)-1H-imidazo[4,5-c]quinolin-1-yl]butyl}-N′-cyclopentylurea], the melting point is 190 to 192 °C.

For the molecule `CCOCc1nc2c(N)nc3cc(-c4cccnc4)ccc3c2n1CCNC(=O)C(C)C` [Example 386, N-{2-[4-Amino-2-ethoxymethyl-7-(pyridin-3-yl)-1H-imidazo[4,5-c]quinolin-1-yl]ethyl}-2-methylpropanamide], the melting point lay within 213 to 215 °C.

In turn, `CCCCc1nc2c(N)nc3cc(-c4ccc(OCCC)cc4)ccc3c2n1CC(C)C` [Example 5, 2-Butyl-1-isobutyl-7-(4-propoxyphenyl)-1H-imidazo[4,5-c]quinolin-4-amine] had a melting point of 194 to 197 °C.

Take `CCOCc1nc2c(N)nc3cc(-c4ccncc4)ccc3c2n1CCCOC` [Example 165, 2-Ethoxymethyl-1-(3-methoxypropyl)-7-(pyridin-4-yl)-1H-imidazo[4,5-c]quinolin-4-amine]: the melting point lay within 225 to 226 °C.

Regarding `CCc1nc2c(N)nc3cc(-c4cccnc4)ccc3c2n1CC1CCN(C(=O)OC(C)(C)C)CC1` [Example 404, tert-Butyl 4-{[4-amino-2-ethyl-7-(pyridin-3-yl)-1H-imidazo[4,5-c]quinolin-1-yl]methyl}piperidine-1-carboxylate], the melting point lay in the range of 229 to 231 °C.

Regarding `CCOCc1nc2c(N)nc3cc(-c4cccnc4)ccc3c2n1CCN1CCNCC1` [Example 414, 2-Ethoxymethyl-1-(2-piperazin-1-ylethyl)-7-(pyridin-3-yl)-1H-imidazo[4,5-c]quinolin-4-amine], the melting point lay in the range of 208 to 211 °C.

`CC(C)Cn1cnc2c(N)nc3cc(CCc4ccccc4)ccc3c21` [Example 430, 1-(2-Methylpropyl)-7-phenethyl-1H-imidazo[4,5-c]quinolin-4-amine] gave a melting point of 172 to 173 °C.

For the molecule `CCOCc1nc2c(N)nc3cc(-c4ccco4)ccc3c2n1CCCOC` [Example 168, 2-Ethoxymethyl-7-(furan-2-yl)-1-(3-methoxypropyl)-1H-imidazo[4,5-c]quinolin-4-amine], the melting point was 144 to 145 °C.

As to `CCCC(=O)NCCCCn1c(COCC)nc2c(N)nc3cc(-c4cccnc4)ccc3c21` [Example 372, N-{4-[4-Amino-2-ethoxymethyl-7-(pyridin-3-yl)-1H-imidazo[4,5-c]quinolin-1-yl]butyl}butyramide], the melting point lay within 150 to 152 °C.

With `CCOCc1nc2c(N)nc3cc(-c4ccccc4)ccc3c2n1CCCN1CCCC1=O` [Example 205, 1-[3-(4-Amino-2-ethoxymethyl-7-phenyl-1H-imidazo[4,5-c]quinolin-1-yl)propyl]pyrrolidin-2-one], the melting point was 199 to 203 °C.

`CCc1nc2c(N)nc3cc(-c4cccnc4)ccc3c2n1CC1CCNCC1` (as salt: hydrochloride) [Example 405, 2-Ethyl-1-(piperidin-4-ylmethyl)-7-(pyridin-3-yl)-1H-imidazo[4,5-c]quinolin-4-amine trihydrochloride]: the melting point was more than 250 °C.

For `CCCc1nc2c(N)nc3cc(CCc4ccc(OC)cc4)ccc3c2n1CC(C)C` (as salt: HCl) [Example 459, 7-[2-(4-Methoxyphenyl)ethyl]-1-(2-methylpropyl)-2-propyl-1H-imidazo[4,5-c]quinolin-4-amine], the melting point is more than 250 °C.

For `CCCc1nc2c(N)nc3cc(-c4cccnc4)ccc3c2n1CC1CCNCC1` (as salt: hydrochloride) [Example 410, 1-(Piperidin-4-ylmethyl)-2-propyl-7-(pyridin-3-yl)-1H-imidazo[4,5-c]quinolin-4-amine trihydrochloride], the melting point is more than 250 °C.

`CCOCc1nc2c(N)nc3cc(-c4ccsc4)ccc3c2n1CC(C)(C)O` [Example 125, 1-[4-Amino-2-ethoxymethyl-7-(thiophen-3-yl)-1H-imidazo[4,5-c]quinolin-1-yl]-2-methylpropan-2-ol] displayed a melting point of 204 to 205 °C.

Molecule `CCOCc1nc2c(N)nc3cc(-c4cccnc4)ccc3c2n1CCCCS(=O)(=O)NC` [Example 369, Methyl 4-[4-amino-2-ethoxymethyl-7-(pyridin-3-yl)-1H-imidazo[4,5-c]quinolin-1-yl]butane-1-sulfonamide] came in with a melting point of 216 to 218 °C.

Consider `CCOCc1nc2c(N)nc3cc(-c4cccc(CS(N)(=O)=O)c4)ccc3c2n1CC1CCOCC1` [Example 480, {3-[4-Amino-2-ethoxymethyl-1-(tetrahydropyran-4-ylmethyl)-1H-imidazo[4,5-c]quinolin-7-yl]phenyl}methanesulfonamide], for which the melting point was in the range of 254 to 255 °C.

With `CCOCc1nc2c(N)nc3cc(-c4cccnc4)ccc3c2n1C[C@H](O)CO` [Example 490, (S)-3-[4-Amino-2-ethoxymethyl-7-(pyridin-3-yl)-1H-imidazo[4,5-c]quinolin-1-yl]propane-1,2-diol], the melting point lay in the range of 203 to 204 °C.

`CCOCc1nc2c(N)nc3cc(-c4ccc(CO)cc4)ccc3c2n1CC1COC(C)(C)O1` (stereo not shown) [Example 160, 1-[(2,2-Dimethyl-1,3-dioxolan-4-yl)methyl]-2-ethoxymethyl-7-(4-hydroxymethylphenyl)-1H-imidazo[4,5-c]quinolin-4-amine]: the melting point is 219 to 220 °C.

With `COCCc1nc2c(N)nc3ccc(-c4cccc(C(C)=O)c4)cc3c2n1CCCN1CCCC1=O` (hydrate or solvate) [Example 189, 1-{3-[8-(3-Acetylphenyl)-4-amino-2-(2-methoxyethyl)-1H-imidazo[4,5-c]quinolin-1-yl]propyl}pyrrolidin-2-one], the melting point is 164 to 167 °C.

With `CCCc1nc2c(N)nc3cc(-c4cccnc4)ccc3c2n1CCCCNC(=O)NC(C)C` (hydrate or solvate) [Example 385], the melting point is 173 to 175 °C.

For `COCCc1nc2c(N)nc3ccc(-c4ccccc4)cc3c2n1CCCN1CCCC1=O` (hydrate or solvate) [Example 187, 1-{3-[4-Amino-2-(2-methoxyethyl)-8-phenyl-1H-imidazo[4,5-c]quinolin-1-yl]propyl}pyrrolidin-2-one], the melting point lay within 207 to 210 °C.

Molecule `CCOCc1nc2c(N)nc3cc(-c4ccccc4)ccc3c2n1CCCCS(=O)(=O)N(C)C` [Example 366, Dimethyl 4-[4-amino-2-ethoxymethyl-7-phenyl-1H-imidazo[4,5-c]quinolin-1-yl]butane-1-sulfonamide] yielded a melting point of 207 to 208 °C.

Turning to `CCOCc1nc2c(N)nc3cc(-c4ccccc4)ccc3c2n1CC1CCN(C(=O)C(C)C)CC1` (hydrate or solvate) [Example 194, 2-Ethoxymethyl-1-[(1-isobutyrylpiperidin-4-yl)methyl]-7-phenyl-1H-imidazo[4,5-c]quinolin-4-amine], the melting point lay within 156 to 158 °C.

For the origin of these results see patent publication US7598382B2, “Aryl substituted imidazoquinolines” (Coley Pharmaceutical Group, Inc., priority 2002, dated 2009).
